Laboratory results published in patent US12357631B2 (priority 2018, dated 2025).

Biological target: PB2 (Influenza A virus, UniProt P03428)
Assay: biochemical
Type: binding

PB2, sequence (P03428 whole entry, looked up): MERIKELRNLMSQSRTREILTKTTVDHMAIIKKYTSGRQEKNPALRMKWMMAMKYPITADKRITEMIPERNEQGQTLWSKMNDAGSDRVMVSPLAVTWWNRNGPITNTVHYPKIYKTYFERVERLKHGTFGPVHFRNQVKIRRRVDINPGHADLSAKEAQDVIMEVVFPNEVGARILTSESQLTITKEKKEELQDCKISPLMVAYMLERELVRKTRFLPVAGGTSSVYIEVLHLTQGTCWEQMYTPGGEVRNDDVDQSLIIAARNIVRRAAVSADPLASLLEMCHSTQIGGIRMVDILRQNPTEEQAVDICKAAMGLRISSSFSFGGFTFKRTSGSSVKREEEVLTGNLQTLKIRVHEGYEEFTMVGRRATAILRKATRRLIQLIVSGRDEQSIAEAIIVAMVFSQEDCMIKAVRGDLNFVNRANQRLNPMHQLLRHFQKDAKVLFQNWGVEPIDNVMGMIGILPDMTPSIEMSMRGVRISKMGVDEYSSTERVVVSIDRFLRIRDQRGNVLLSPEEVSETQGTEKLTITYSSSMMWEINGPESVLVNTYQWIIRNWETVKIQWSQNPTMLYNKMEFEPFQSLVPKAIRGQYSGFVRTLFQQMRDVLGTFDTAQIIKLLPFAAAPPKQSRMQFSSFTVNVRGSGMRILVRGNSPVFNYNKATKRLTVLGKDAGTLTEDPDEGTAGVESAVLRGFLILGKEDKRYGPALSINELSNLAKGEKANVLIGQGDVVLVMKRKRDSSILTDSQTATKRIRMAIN

`CCOCCOCCOCCNC(=O)N[C@@H]1CCC[C@H](Nc2nc(-c3c[nH]c4ncc(F)cc34)ncc2F)C1` [Compound A264] and `CCOCCOCCCCCNC(=O)N[C@@H]1CCC[C@H](Nc2nc(-c3c[nH]c4ncc(F)cc34)ncc2F)C1` [Compound A180] cannot be ordered by EC50: > 100 µM for the first, > 100 µM for the second.

`CCC(CC)OCCOCCCCCN(C)C(=O)N[C@H]1CCC[C@@H](Nc2nc(-c3c[nH]c4ncc(F)cc34)ncc2F)C1` [Compound A246] and `CCCCCOCCCCCN(C)C(=O)N[C@@H]1CCC[C@H](Nc2nc(-c3c[nH]c4ncc(F)cc34)ncc2F)C1` [Compound A201] cannot be ordered by EC50: > 100 µM for the first, > 100 µM for the second.

`O=C(CNC(=O)OCc1ccnc(C(=O)N[C@H]2CCC[C@@H](Nc3nc(-c4c[nH]c5ncc(F)cc45)ncc3F)C2)c1)Nc1ccccc1C(=O)O` [Compound A129] and `O=C(NCC(O)CO)OCc1ccnc(C(=O)N[C@H]2CCC[C@@H](Nc3nc(-c4c[nH]c5ncc(F)cc45)ncc3F)C2)c1` (stereo partly shown) [Compound A99] cannot be ordered by EC50: < 5 µM for the first, < 5 µM for the second.

First: CCOCCOCCCc1ccnc(C(=O)N[C@H]2CCC[C@@H](Nc3nc(-c4c[nH]c5ncc(F)cc45)ncc3F)C2)c1 [Compound A24]
Second: CCOCCOCCCc1cc(C(=O)N[C@@H]2CCC[C@H](Nc3nc(-c4c[nH]c5ncc(F)cc45)ncc3F)C2)ncn1 [Compound A33]
The EC50 of the first is lower: 50 to 100 µM for the first, > 100 µM for the second.

Compared with `O=C(O)CC(=O)N1CCC[C@H](Nc2nc(-c3c[nH]c4ncc(F)cc34)ncc2F)C1` [Compound C10], `CCOC(=O)CCN1CCC[C@@H](Nc2nc(-c3c[nH]c4ncc(F)cc34)ncc2F)C1` [Compound C14] is higher in EC50: < 5 µM for the first, 5 to 25 µM for the second.

Going from `O=C(O)CCOCCOCCOCC(=O)N[C@H]1CCC[C@@H](Nc2nc(-c3c[nH]c4ncc(F)cc34)ncc2F)C1` [Compound A268] to `CCOCCOCCOCCN(Cc1ccccc1)C(=O)N[C@@H]1CCC[C@H](Nc2nc(-c3c[nH]c4ncc(F)cc34)ncc2F)C1` [Compound A176], the EC50 rises from < 5 µM to > 100 µM. The first is the more potent here.

Compared with `O=C(NCCOCC(F)(F)F)OCc1ccnc(C(=O)N[C@H]2CCC[C@@H](Nc3nc(-c4c[nH]c5ncc(F)cc45)ncc3F)C2)c1` [Compound A114], `CC(C)[C@H](NC(=O)OCc1ccnc(C(=O)N[C@@H]2CCC[C@H](Nc3nc(-c4c[nH]c5ncc(F)cc45)ncc3F)C2)c1)C(=O)O` [Compound A135] is lower in EC50: 50 to 100 µM for the first, 5 to 25 µM for the second. The second is the more potent here.

First: O=C(N[C@@H]1CCC[C@H](Nc2nc(-c3c[nH]c4ncc(F)cc34)ncc2F)C1)c1cc(CCCOCCOCc2ccccc2)ccn1 [Compound A34]
Second: CCOCCOCCCc1ccnc(C(=O)N[C@H]2CCC[C@@H](Nc3nc(-c4c[nH]c5ncc(F)cc45)ncc3F)C2)c1 [Compound A288]
The EC50 of the first is higher: > 100 µM for the first, 5 to 25 µM for the second. The second is the more potent here.

`CCNC(=O)C(NC(=O)OCc1ccnc(C(=O)N[C@H]2CCC[C@@H](Nc3nc(-c4c[nH]c5ncc(F)cc45)ncc3F)C2)c1)C(C)(C)C` (stereo partly shown) [Compound A149] and `CCOc1cccc(-c2ccnc(C(=O)N[C@H]3CCC[C@@H](Nc4nc(-c5c[nH]c6ncc(F)cc56)ncc4F)C3)c2)c1` [Compound A52] cannot be ordered by EC50: > 100 µM for the first, > 100 µM for the second.

Compared with `CCOCCOCCCCCN(CC(=O)N(C)C)C(=O)N[C@@H]1CCC[C@H](Nc2nc(-c3c[nH]c4ncc(F)cc34)ncc2F)C1` [Compound B7], `CCOCCOCCCCCN(Cc1cncnc1)C(=O)N[C@H]1CCC[C@@H](Nc2nc(-c3c[nH]c4ncc(F)cc34)ncc2F)C1` [Compound A209] is higher in EC50: 25 to 50 µM for the first, > 100 µM for the second. The first is the more potent here.

First: O=C(N[C@H]1CCC[C@@H](Nc2nc(-c3c[nH]c4ncc(F)cc34)ncc2F)C1)c1cncc(F)c1 [Compound A57]
Second: CCOc1cccc(-c2cncc(C(=O)N[C@@H]3CCC[C@H](Nc4nc(-c5c[nH]c6ncc(F)cc56)ncc4F)C3)c2)c1 [Compound A68]
The EC50 of the first is lower: 5 to 25 µM for the first, 25 to 50 µM for the second.

First: CCOCCOCCCC1CCN(C(=O)N[C@@H]2CCC[C@H](Nc3nc(-c4c[nH]c5ncc(F)cc45)ncc3F)C2)C1 (stereo partly shown) [Compound A7]
Second: CCCCOCCCCCCN(C)C(=O)N[C@@H]1CCC[C@H](Nc2nc(-c3c[nH]c4ncc(F)cc34)ncc2F)C1 [Compound A200]
The EC50 of the first is lower: 5 to 25 µM for the first, > 100 µM for the second.

For `CCOCCOCc1cccc(CN(C)C(=O)N[C@@H]2CCC[C@H](Nc3nc(-c4c[nH]c5ncc(F)cc45)ncc3F)C2)c1` [Compound A204], the EC50 was > 100 µM.
